Results published in patent EP0774454A1, “Excitatory amino acid receptor antagonists” (ELI LILLY AND COMPANY, priority 1995, dated 1997).

Test system: metabotropic glutamate receptors
Assay: displacement of 1S,3R-ACPD-sensitive [3H]glutamate binding to rat brain cell membranes (crude membranes of rat forebrain)
Protocol: The binding of [^3H]glutamate was conducted with crude membranes of rat forebrain as described by Schoepp and True, Neuroscience Lett., 145, 100-104 (1992) and Wright et al., J. Neurochemistry 63, 938-945, 1994.

| IC50 [nM] | SMILES | affinity for metabotropic glutamate receptors (result in words) |
| --- | --- | --- |
| 242 | NC1(C(=O)O)CC(Sc2ccccc2)C2C(C(=O)O)C21 (stereo not drawn) [Example 1, 1SR,2RS,4SR,5SR,6SR-2-Amino-4-(phenylthio)-bicyclo[3.1.0]hexane-2,6-dicarboxylic acid] |  |
|  | N[C@]1(C(=O)O)C[C@@H](SCc2ccco2)[C@@H]2[C@@H](C(=O)O)[C@@H]21 (racemic) [Example 8, 1SR,2RS,4RS,5SR,6SR-2-Amino-4-((2-furanylmethyl)thio)bicyclo[3.1.0]hexane-2,6-dicarboxylic acid] | essentially inactive |
